The nature of data set [1]: Stability towards drug metabolizing enzymes in lung S9. In kind it is in vitro ADME, human. To be noted: for half-life at 1 μM: human. As to the method: A 1 μM solution of the ROCK inhibitors is incubated with a reaction mixture containing lung S9 (from smokers) as well as the cofactors NADPH, UDPGA, PAPS and GSH. Samples are collected at 0, 15, 30 and 60 minutes post incubation. Negative control samples incubated with ROCK inhibitors and S9 fraction in the absence of cofactors are run in parallel. By using LC-MS/MS analysis, the percent of ROCK compounds remaining at each time point, the metabolic half-life of the ROCK compounds (expressed in minutes) and the metabolic half-life of the control compounds are determined.

Data set [2] concerns the target ROCK2 (Homo sapiens, UniProt O75116). Kind of data set: Kinase inhibition (ROCKI & ROCKII), radiometric 33P-ATP biochemical assay. To be noted: for inhibitory activity against ROCK (in words): summary of point C1.1. As to the method: On-target activity against ROCK was measured in a biochemical assay, using the following reagents: Base Reaction buffer; 20 mM Hepes (pH 7.5), 10 mM MgCl2, 1 mM EGTA, 0.02% Brij35, 0.02 mg/ml BSA, 0.1 mM Na3VO4, 2 mM DTT, 1% DMSO. Required cofactors are added individually to each kinase reaction. The reaction procedure first involved the preparation of a peptide substrate in a freshly prepared reaction buffer. Required cofactors were then added to the substrate solution. ROCK (1 nM final concentration) was then delivered to the substrate solution. After gentle mix, DMSO solutions of the test compounds were added to the enzyme. Substrate mix ^33P-ATP (specific activity 0.01 μCi/μl final) was then delivered into the reaction mixture to initiate the reaction. The kinase reaction was incubated for 120 min. at room temperature. Reactions were then spotted onto P81 ion exchange paper (Whatman #3698-915). Filters were washed extensively in 0.1% Phosphoric acid. A radiometric count was then performed and IC50 values were subsequently determined.
The IC50 values obtained (in accordance with the protocol set forth above) are represented as follows: “+++” means IC50 below 0.1 μM, “++” means IC50 between 0.1 μM and 1 μM; “+” means IC50 between 1 and 10 μM and “ND” means “not determined yet”.

Data set [3] concerns MLC-T18/S19 phosphorylation. Description: Myosin light chain phosphorylation assay (ELISA) in A7r5 cells. The class given is cell-based, Rat. The following applies: for IC50 / EC50: Rattus norvegicus; for IC50: A7R5, comparison table, MLC phosphorylation, read-out: IC50 MLC-PP; for functional activity in the MLC phosphorylation assay (in words): FIG. 1; for EC50: MLC-T18/S19 phosphorylation, A7r5 cells, serum-free medium. As to the method: Rat smooth muscle cell line A7r5 is used. The endogenous expression of ROCK esults in a constitutive phosphorylation of the regulatory myosin light chain at T18/S19. A7r5 cells were plated in DMEM supplemented with 10% FCS in multiwall cell culture plates. After serum starvation overnight, cells were incubated with compounds in serum-free medium.
Quantification of MLC-T18/S19 phosphorylation is assesses in 96 well-plates via ELISA using a phspho-MLC-T18/S19 specific antibody and a secondary detection antibody. Raw data were converted into percent substrate phosphorylation relative to high controls, which were set to 100%.
EC50 values were determined using GraphPad Prism 5.01 software using a nonlinear regression curve fit with variable hill slope.
The EC50 values obtained (in accordance with the protocols set forth above) are represented as follows: “+++” means EC50 below 0.3 μM, “++” means EC50 between 0.3 μM and 1 μM; “+” means EC50 between 1 and 10 μM and “−” means EC50>10 μM.

A short description of data set [4]: Stability assay in rabbit aqueous humor. The class given is in vitro ADME. To be noted: for half-life at 1 μM: rabbit, read-out: t½ AH. Here is the method:
Compounds are incubated at a concentration of 1 μM in rabbit aqueous humor (AH). Samples are taken at fixed time points and the remnant of compound is determined by LC-MS/MS after protein precipitation. Half life is expressed in minutes.

A short description of data set [5]: Stability in plasma, species not stated. The class given is in vitro ADME. To be noted: for half-life at 1 μM: read-out: t½ Plasma; for half life in plasma (in words): point C.2.1. As to the method: (§1) Compounds are incubated at a concentration of 1 μM in rat (mice or rabbit) or human plasma. Samples are taken at fixed time points and the remnant of compound is determined by LC-MS/MS after protein precipitation. Half life is expressed in minutes.

The nature of data set [6]: Stability assay in human plasma. The class given is in vitro ADME. To be noted: 1 μM compound, LC-MS/MS, read-out: t½ human plasma. As to the method:
as §1

A short description of data set [7]: Stability assay in mice plasma. In kind it is in vitro ADME. The following applies: mouse, 1 μM compound, LC-MS/MS, read-out: t½ mice plasma. As to the method:
as §1

Data set [8] relates to normotensive New Zeland White rabbits. Kind of data set: Intraocular pressure (IOP) lowering in normotensive rabbits. The class given is in vivo, rabbit. Here is the method: A detailed example of the IOP lowering effects of the compounds of the invention is here provided for compound 14. Compound 14 was here formulated as a 0.3% solution of pH=6.91 in Water/PEG 400 1:1.
IOP of to normotensive New Zeland White rabbits (n=3) was measured using a Tonolab tonometer, at 9h00, prior to compound administration.
At 9h30, one drop (50 μl) of the formulated solution was administered to rabbits, in the right eye (OD); while one drop (50 μl) of the vehicle solution was administered to the left eye (OS). IOP was then recorded in 1 h intervals until 17 h.

Setting [9] is: lung S9 (from smokers), comparison table, read-out: t½ lung S9.
The mark [10] stands for this setting: aqueous humor, comparison table, aqueous humor.
The mark [11] stands for this setting: comparison table, plasma species not given.
Setting [12] is: 1 μM, lung S9 from smokers, cofactors NADPH, UDPGA, PAPS, GSH.
[13] abbreviates: lung S9 (from smokers), text summary of point C.2.2, read-out: half-life in lung tissue.
The mark [14] stands for this setting: ROCK 1 nM, 120 min at room temperature.
Setting [15] is: aqueous humor, 1 μM in rabbit aqueous humor.

The structures appear in SMILES notation. Entries after “also recorded” stand apart in the source; their conditions may differ.

The values that follow come from US9073905B2, “Rock inhibitors” (Amakem NV, priority 2011, dated 2015).

Chain of ROCK2 (O75116 whole entry, species assumed): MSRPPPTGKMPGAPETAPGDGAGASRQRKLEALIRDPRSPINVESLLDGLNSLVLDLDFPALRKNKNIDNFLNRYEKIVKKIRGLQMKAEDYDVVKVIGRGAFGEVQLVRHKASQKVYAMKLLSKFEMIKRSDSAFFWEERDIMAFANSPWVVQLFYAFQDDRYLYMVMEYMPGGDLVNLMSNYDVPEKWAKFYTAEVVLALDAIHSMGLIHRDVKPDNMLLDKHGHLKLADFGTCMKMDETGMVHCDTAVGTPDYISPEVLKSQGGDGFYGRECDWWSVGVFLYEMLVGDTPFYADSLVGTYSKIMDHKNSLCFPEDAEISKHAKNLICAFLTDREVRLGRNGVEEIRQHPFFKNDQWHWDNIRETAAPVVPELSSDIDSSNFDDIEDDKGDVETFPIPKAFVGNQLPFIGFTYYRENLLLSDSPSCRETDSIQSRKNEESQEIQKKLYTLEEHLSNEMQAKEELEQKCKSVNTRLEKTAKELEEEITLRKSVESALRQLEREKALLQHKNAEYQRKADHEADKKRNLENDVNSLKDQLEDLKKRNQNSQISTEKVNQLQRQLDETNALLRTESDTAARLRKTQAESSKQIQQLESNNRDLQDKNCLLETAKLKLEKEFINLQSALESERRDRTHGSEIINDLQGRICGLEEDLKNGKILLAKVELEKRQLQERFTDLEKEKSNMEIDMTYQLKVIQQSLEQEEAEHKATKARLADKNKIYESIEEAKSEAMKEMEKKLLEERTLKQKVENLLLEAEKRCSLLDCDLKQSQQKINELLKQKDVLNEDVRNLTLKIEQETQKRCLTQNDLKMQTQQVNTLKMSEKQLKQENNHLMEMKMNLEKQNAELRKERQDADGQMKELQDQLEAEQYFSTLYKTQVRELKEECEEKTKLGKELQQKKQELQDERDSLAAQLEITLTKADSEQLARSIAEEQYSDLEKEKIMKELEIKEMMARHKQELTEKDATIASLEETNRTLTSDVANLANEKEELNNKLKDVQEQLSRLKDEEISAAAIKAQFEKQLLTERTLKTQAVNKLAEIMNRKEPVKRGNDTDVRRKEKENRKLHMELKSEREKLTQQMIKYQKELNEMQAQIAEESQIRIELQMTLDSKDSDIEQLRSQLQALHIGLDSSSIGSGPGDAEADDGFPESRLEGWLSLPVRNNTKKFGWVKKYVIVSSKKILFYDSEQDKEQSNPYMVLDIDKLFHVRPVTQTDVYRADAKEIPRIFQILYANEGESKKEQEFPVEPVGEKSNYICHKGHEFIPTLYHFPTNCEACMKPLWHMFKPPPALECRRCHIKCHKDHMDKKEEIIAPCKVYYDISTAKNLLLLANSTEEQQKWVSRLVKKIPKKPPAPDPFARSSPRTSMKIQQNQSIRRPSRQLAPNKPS

One may read the IC50 as the concentration needed to halve the response being measured. With `CS(=O)(=O)Nc1cccc(CN2CCCC(Nc3ccc4[nH]ncc4c3)C2)c1` (stereo not drawn) [Compound 1.091, reference compound], the half-life at 1 μM in data set [1] (setting [9]) was more than 240 min; in data set [4] (setting [10]) it was more than 120 min; in data set [5] (setting [11]), more than 120 min. Moreover, the results for the IC50 in data set [2] (comparison table) and in data set [3] were 0.0024 µM and 0.11 µM, respectively. Besides, in data set [5] (plasma, aqueous humor, lung S9), the “degradation in the tested media, including plasma (in words)” value was “not degraded at a significant rate”.
For `CCOC(=O)COc1cccc(CN2CCCC(Nc3ccc4[nH]ncc4c3)C2)c1` (racemic) [Compound 1.060, reference compound], the “t½ lung S9” value in data set [1] (comparison table) is reported as less than 5 min. Besides, the half-life at 1 μM in data set [1] (setting [9]), in data set [4] (setting [10]) and in data set [5] (setting [11]) was less than 5 min throughout. For the same molecule, inhibition in data set [2] (comparison table) was half-maximal at 0.007 µM (IC50). In data set [4] (comparison table, aqueous humor), the “t½ AH” value was less than 5 min. For the same molecule, the “t½ Plasma” value in data set [5] (setting [11]) is reported as less than 5 min.
For orientation: EC50 means the concentration at which the effect is half-maximal. Regarding `O=C(NCCSC1CCOC1=O)c1cccc(CN2CCCC(Nc3cccc4cnccc34)C2)c1` (stereo not drawn) [Compound 26], the half-life at 1 μM in data set [6] was 5 min; in data set [1] (setting [13]), more than 240 min; in data set [7] it was 2.5 min; in data set [5] (setting [11]), less than 5 min. Also, the “t½ human lung S9” value in data set [1] (setting [12]) was more than 240 min. Moreover, the “t½ lung S9” value in data set [1] (comparison table) is more than 240 min. Further, the IC50 was less than 0.1 µM in data set [2] (setting [14]), 0.0019 µM in data set [2] (comparison table) and 0.4 µM in data set [3]. In addition, the “inhibitory activity against ROCK (in words)” value (shortened to “inhibitory activity”) in data set [2] was “strong inhibitory activity”. Also, the “functional activity in the MLC phosphorylation assay (in words)” value (“functional activity” for short) in data set [3] is listed as “display functional activity”. In data set [3], the EC50 fell in the range of 0.3 to 1 µM. The “half life in plasma (in words)” value in data set [5] is “short half life”.
As for `COC(=O)c1cccc(NC(=O)c2cccc(CN3CCC(Nc4cccc5cnccc45)C3)c2)c1` (stereo not drawn) [Compound 32], the half-life at 1 μM in data set [6] is 25 min; in data set [1] (1 μM, lung S9 from smokers, cofactors NADPH, UDPGA, PAPS, GSH, read-out: t½ human lung S9), more than 240 min; in data set [4] (setting [15]), more than 120 min; in data set [4] (setting [10]), 98 min; in data set [5] (setting [11]), 22 min. Also, the “t½ lung S9” value in data set [1] (comparison table) was more than 240 min. In addition, the results for the IC50 in data set [2] (setting [14]), in data set [2] (comparison table) and in data set [3] were less than 0.1 µM, 0.025 µM and 0.16 µM, respectively. This molecule registered an EC50 in data set [3] of less than 0.3 µM.
Regarding `O=C(NCCSC1CCOC1=O)c1cccc(CN2CCCC(Nc3ccc4[nH]ncc4c3)C2)c1` (stereo not drawn) [Compound 28], the half-life at 1 μM is less than 5 min in data set [6], more than 240 min in data set [1] (setting [13]) and 2.2 min in data set [7]. In addition, the “t½ human lung S9” value in data set [1] (setting [12]) is more than 240 min. For the same molecule, in data set [2] (setting [14]), the IC50 was less than 0.1 µM. In addition, in data set [2], the “inhibitory activity” value is reported as “strong inhibitory activity”. Also, the “functional activity” value in data set [3] was “display functional activity”. The molecule also returned an EC50 in data set [3] of 0.3 to 1 µM. Besides, the “half life in plasma (in words)” value in data set [5] is “short half life”.
As for `O=C(OCC1CCCO1)c1cccc(CN2CCCC(Nc3ccc4[nH]ncc4c3)C2)c1` (stereo not drawn) [Compound 14], the half-life at 1 μM in data set [6] was less than 5 min; in data set [1] (setting [9]), 9 min; in data set [4] (setting [15]) it was more than 120 min; in data set [4] (setting [10]), more than 120 min; in data set [5] (setting [11]), less than 5 min. Besides, in data set [8] (0.3% solution, one drop at 9h30, until the 14 h time point), the “time after administration until which the IOP decrease is statistically significant (P≦0.05)” value is recorded as 4.30 h. For the same molecule, the “IOP decrease following administration (in words)” value in data set [8] (0.3% solution, one drop, visible until 17 h) is on record as “pronounced IOP decrease”. Besides, the “Average IOP OD (mmHg)” value in data set [8] (9 h, right eye (OD), prior to compound administration (baseline), n=3) stood at 9.89 mmHg; in data set [8] (10 h, one drop (50 μl) 0.3% solution in Water/PEG 400 1:1 at 9h30, right eye (OD)), 7.67 mmHg; in data set [8] (11 h, one drop (50 μl) 0.3% solution at 9h30, right eye (OD)) it was 6.44 mmHg; in data set [8] (12 h, one drop (50 μl) 0.3% solution at 9h30, right eye (OD)), 6.22 mmHg; in data set [8] (13 h, one drop (50 μl) 0.3% solution at 9h30, right eye (OD)), 7.00 mmHg; in data set [8] (14 h, one drop (50 μl) 0.3% solution at 9h30, right eye (OD)), 6.44 mmHg. The “Average IOP OD (mmHg)” value in data set [8] (15 h, one drop (50 μl) 0.3% solution at 9h30, right eye (OD)) turned out to be 7.67 mmHg; in data set [8] (16 h, one drop (50 μl) 0.3% solution at 9h30, right eye (OD)) it was 7.89 mmHg; in data set [8] (17 h, one drop (50 μl) 0.3% solution at 9h30, right eye (OD)), 8.11 mmHg. For the same molecule, the IC50 in data set [2] (setting [14]) was less than 0.1 µM; in data set [2] (comparison table), 0.0034 µM; in data set [3] it was 0.24 µM. Further, in data set [2], the “inhibitory activity” value is “strong inhibitory activity”. Also, the “functional activity” value in data set [3] is listed as “functionally active compound; also recorded: display functional activity”. This molecule returned a concentration giving a half-maximal response (EC50) in data set [3] of less than 0.3 µM. For the same molecule, in data set [4] (text summary of point C.2.3), the “half-life in aqueous humor compared with plasma (in words)” value is “significantly longer half-life in aqueous humor than in plasma”. Moreover, the “half life in plasma (in words)” value in data set [5] was “short half life”.
